Data reported in patent US10450566B2, “Compounds for inducing anti-tumor immunity and methods thereof” (Cornell University, priority 2013, dated 2019).

Tests used:
Assay type in all cases: cell-based, mouse
4-HNE-protein adducts = 4-HNE-protein adducts in DCs by competitive ELISA
Method: (§1) Murine recombinant cytokines were purchased from Peprotech. Cobalt chloride, Tunicamycin (used at 1 μg/ml), Tiron (used at 100-500 μM) and Vitamin E (α-tocopherol, used at 50-100 μM) were from Sigma. DCFDA staining was utilized for intracellular ROS detection (Abcam). Purified 4-HNE was obtained from Cayman Chemical and 4-HNE-protein adducts in ascites samples and DCs were detected and quantified through competitive ELISA (Cell Biolabs). TOFA (Cayman Chemical) was used at a final concentration of 5 μg/ml to inhibit fatty acid synthesis in DCs by blocking the synthesis of malonyl-CoA by acetyl-CoA carboxylase. The IRE-1α-specific inhibitor 4μ8c (Millipore) was used at a final concentration of 10 μM.
(§2) Whether these reactive aldehyde byproducts could trigger ER stress in DCs was investigated. […] Accordingly, intracellular 4-HNE-protein adducts were also readily found in tDCs isolated from these malignant samples (FIG. 4D). 4-HNE generation in mouse tDCs exposed to cell-free ovarian cancer ascites decreased upon exposure to the common antioxidant Vitamin E (FIG. 4E).

tDCs [1] = test: Intracellular lipid content of tDCs by BODIPY 493/503 staining and flow cytometry; conditions: tDCs with 25% cell-free ovarian cancer ascites, 24h, Bodipy493/503
Method: FIG. 9G: graphically depicts the intracellular lipid content of tDCs incubated in vitro with 25% cell-free ovarian cancer ascites supernatants in the presence of the indicated inhibitors. Intracellular lipid content was assessed 24h later via Bodipy493/503 staining. Data are representative of 3 independent experiments with similar results. #P<0.05 compared with control tDC incubated in the absence of cell-free ascites supernatants. *P<0.05 compared with ascites-exposed tDC but left untreated.
as §1
Intracellular lipid content in DCs was evaluated via flow cytometry using 4,4-Difluoro-1,3,5,7,8-Pentamethyl-4-Bora-3a,4a-Diaza-s-Indacene (BODIPY 493/503, Life Technologies) as previously reported (Herber et al., 2010). […] Cells were washed twice with 1×PBS and stained with 500 μl of BODIPY 493/503 at […] in PBS for 15 min at room temperature in the dark. Cells were washed twice and analyzed by flow cytometry. BODIPY 493/503 staining was detected in the PE channel. For intracellular cytokine staining, 5×10^6 cells isolated from malignant peritoneal wash samples of ovarian cancer-bearing mice were stimulated for 6h in 10% FBS complete RPMI containing PMA (Calbiochem), lonomycin (Calbiochem) and Brefeldin A (BioLegend). […] Flow cytometry data was analyzed using FlowJo version 9 or 10.

tDCs [2] = test: In vitro antigen presentation: OVA-pulsed tDCs cocultured with CFSE-labeled OT-1 T cells; conditions: wild type tDC pre-treated, full-length OVA, cell-free malignant ascites
Method: For in vitro antigen presentation experiments, tDC or sDC were sorted from the peritoneal cavity or spleen of XBP1^f/f or XBP1^f/f CD11c-Cre female mice bearing ID8-Defb29/Vegf-A ovarian tumors for 4 weeks (FIG. 1). tDCs were pulsed for overnight 50 μg/ml of full-length endotoxin-free OVA (SIGMA, Grade VII) in the presence or absence of Vitamin E (50 μg/ml) in media containing 25% cell-free ovarian cancer ascites supernatants. DCs were washed twice and cocultured for 3 days with CFSE-labeled CD8^+ T cells immunopurified from OT-1 mice at a 1:10 (DC to T cell) ratio, as previously described (Scarlett et al., 2009).

XBP1 = XBP1 splicing and ER stress/lipid gene expression in naïve sDCs by RT-PCR/RT-qPCR
Method: as §1
Total RNA from human samples was isolated using the miRVANA miRNA isolation Kit (Life Technologies). RNA from mouse samples was isolated using the Qiazol reagent (Qiagen). […] of RNA were used to generate cDNA using the High Capacity cDNA Reverse Transcription Kit (Life Technologies). Human and mouse Xbp1 splicing assays were performed as described (Lee et al., 2003a; Martinon et al., 2010) using conventional Reverse Transcription PCR (RT-PCR) and primers shown in Table 1. Gene expression analysis was done via Reverse Transcription quantitative PCR (RT-qPCR) using a Stratagene Mx3005 instrument and SYBR green I (Life Technologies). […] All primers used in this study are described in Table 1.
One goal of the present invention was to investigate how the tumor microenvironment influences the functional status of XBP1 in DCs. In particular, one aim of the present invention was to investigate whether cancer-derived factors could participate in triggering ER stress and XBP1 activation in tumor-infiltrating DCs, and determine whether this process could impact the detrimental function of these innate immune cells in hosts with ovarian cancer. […] In particular, naïve sDCs were isolated and stimulated for 24h with cytokines (e.g., IL-10, TGF-β, VEGFα, KC, CCL3, IL-6) at concentrations ranging from 5 ng/ml to 25 ng/ml (FIG. 3A-D). Cells were also exposed for 24 hours to increasing concentrations of cobalt chloride (CoCl2), a chemical inducer of the HIF1α pathway that mimics low oxygen conditions (Piret et al. 2002) (FIG. 3E-F). Splicing and upregulation of XBP1 was determined by RT-qPCR analysis (FIG. 3).
as §2

[3] = naïve sDCs exposed for 3h to increasing amounts

Cc1c(C)c2c(c(C)c1O)CC[C@@](C)(CCC[C@H](C)CCC[C@H](C)CCCC(C)C)O2 [Vitamin E, α-tocopherol]
4-HNE generation (intracellular 4-HNE-protein adducts) in tDCs (4-HNE-protein adducts; mouse tDCs exposed to cell-free ovarian cancer ascites): decreased
intracellular lipid content of tDCs (tDCs [1]): reduced intracellular lipid content
antigen-presenting capacity (expansion of OT-1 T cells) (tDCs [2]): phenocopied the enhanced antigen-presenting capacity exhibited by XBP1-deficient tDCs

Cc1cc(=O)oc2c(C=O)c(O)ccc12 [4μ8c]
intracellular lipid content of tDCs (tDCs [1]): restricted the observed ascites-induced lipid biogenesis

CCCCCC(O)/C=C/C=O (stereo not drawn) [4-HNE, 4-hydroxy-trans-2-nonenal]
BiP and CHOP gene expression (general ER stress response markers) (XBP1; [3]): robust induction
ERdj4 gene expression (XBP1; [3]): upregulation
splicing of the Xbp1 mRNA (XBP1; [3]): rapidly triggered splicing of the Xbp1 mRNA
expression of lipid biosynthetic genes Agpat6, Fasn and Lpar1 (XBP1; naïve sDCs stimulated for 3h): rapidly upregulated
formation of intracellular 4-HNE-protein adducts (4-HNE-protein adducts; naïve sDCs, increasing concentrations of purified 4-HNE): efficiently formed covalent adducts with intracellular proteins

CCCCCCCCCCCCCCOc1ccc(C(=O)O)o1 [TOFA]
intracellular lipid content of tDCs (tDCs [1]): prevented
